Patent publication US20190124928A1, “ENHANCED HERBICIDAL COMPOSITIONS OF TRANSITION METAL CHELATES” (W. Neudorff GMBH KG, priority 2016, published 2019)

Key:
perennial ryegrass [1] = test: Example 5 greenhouse white clover and turf test, grass damage; assay type: in vivo, Lolium perenne; settings: sprayed twice at 100 ml/m^2, seven days after first spraying
Experimental: (§1) Unless otherwise specified, all of the iron solutions were made using the same molar concentration of iron ion as chelating agent. In the liquid formulations samples were prepared by diluting a metal chelate, iron HEDTA (Neu 1173H) or iron EDTA to the desired level of iron as specified using stirring. Neu 1173H contains the stabilizer sodium citrate at 1.5% prior to dilution. Dilutions of iron HEDTA to the level of 0.25% Fe incorporate 0.08% sodium citrate into the spray solutions. KCl was then diluted and added to the diluted metal chelate.
(§2) In the dry formulations, the iron chelate was simply blended with KCl and with other fertilizer ingredients. Samples were usually prepared within 48 hours of treatment. All of the outside tests were done on areas of grass and white clover that were at least 2 months old. For the greenhouse tests, white clover and dandelion were grown in a commercial greenhouse mix using supplemental lighting and heating. Each plant was grown in a 2¼ inch pot to a minimum diameter of 15-20 cm. Perennial ryegrass was grown in 2¼ inch pots in the same greenhouse conditions as above and they are at least 4 weeks old at the time of application. […]
(§3) All plant damage was visually assessed using a percentage rating scale from 0 (no injury) to 100% (death). […] Percentage control was calculated from the respective weed cover data (e.g. preferably using the Henderson & Tilton formula). […]

white clover = test: Example 5 greenhouse white clover and turf test, white clover damage; assay type: in vivo, Trifolium repens; settings: sprayed twice at 100 ml/m^2, seven days after first spraying
Experimental: as §1, §2, §3

perennial ryegrass [2] = test: Example 10 greenhouse dandelion and turf test with sodium sulfate, grass damage; assay type: in vivo, Lolium perenne; settings: sprayed once at 200 ml/m^2, six days after first spraying
Experimental: as §1, §2, §3

dandelion = test: Example 10 greenhouse dandelion and turf test with sodium sulfate, dandelion damage; assay type: in vivo, Taraxacum officinale; settings: sprayed once at 200 ml/m^2, six days after first spraying
Experimental: as §1, §2, §3

Q: Which “Grass Damage (%)” value (perennial ryegrass [1]) does the source give for `[Cl-].[K+]` [KCl 2%, potassium chloride] here?
A: 0%

Q: What about the “White Clover Damage (%)” value (white clover) of the same compound?
A: 0%

Q: What does the source list for `O=S(=O)([O-])[O-].[Na+].[Na+]` [Na2SO4 2%, sodium sulfate]?
A: Grass Damage (%) (perennial ryegrass [2]): 4%; Dandelion damage (%) (dandelion): 0%
